The values below come from paper PMC8453936, “Development and in vitro Profiling of Dual FXR/LTA4H Modulators” (Chemmedchem, 2021).

One assay has as its target T1, PPARγ (Homo sapiens, UniProt P37231).
T1 construct: expressed in transfected cells; host or cells: HEK293T
T1 sequence (P37231 238-503 limits assumed): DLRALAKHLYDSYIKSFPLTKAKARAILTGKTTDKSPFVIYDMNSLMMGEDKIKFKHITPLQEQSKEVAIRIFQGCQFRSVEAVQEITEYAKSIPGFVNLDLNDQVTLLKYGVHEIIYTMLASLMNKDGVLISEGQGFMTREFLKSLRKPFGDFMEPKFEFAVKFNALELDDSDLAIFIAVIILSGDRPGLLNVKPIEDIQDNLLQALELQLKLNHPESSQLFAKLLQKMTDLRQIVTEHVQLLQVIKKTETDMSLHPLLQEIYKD
As to the kind of experiment: Gal4 hybrid reporter gene assay PPARγ (HEK293T). The following applies: relative activation, n=2. The class given is cell-based. The text has this:
Isothermal titration calorimetry (ITC) confirmed binding of 8 and 19 to the recombinant proteins of both FXR LBD and LTA4H (Figure 1).
Figure 2 (a) Selectivity profiles of 8 and 19 over related nuclear receptors. […] (b) Activity of 8 and 19 in a WST‐1 cell viability assay in HepG2 cells. Data are mean±S.E.M., n=4. […] Data are mean±S.E.M. relative FXR activation (%), n≥3. […] Data are mean±S.E.M. relative LTA4H inhibition (%), n=3.
Hybrid reporter gene assays. Nuclear receptor modulation was determined in hybrid reporter gene assays using the Gal4‐fusion receptor plasmids pFA‐CMV‐hPPARα‐LBD,[39] pFA‐CMV‐hPPARγLBD,[39] pFA‐CMV‐hPPARδ‐LBD,[39] pFA‐CMV‐hLXRα‐LBD,[40] pFACMV‐hLXRβ‐LBD,[40] pFA‐CMV‐hRXRα‐LBD,[41] pFA‐CMV‐hRARα‐LBD,[41] pFA‐CMV‐hVDR‐LBD[41] and pFA‐CMV‐hCAR‐LBD[41] coding for the hinge region and ligand binding domain (LBD) of the canonical isoform of the respective nuclear receptor, pFR‐Luc (Stratagene) as reporter plasmid and pRL‐SV40 (Promega) for normalization of transfection eﬃciency. HEK293T cells were grown in DMEM high glucose, supplemented with 10 % FCS, sodium pyruvate (1 mM), penicillin (100 U/mL), and streptomycin (100 μg/mL) at 37 °C and 5 % CO2, and seeded in 96‐well plates (2.5 ⋅ 10^4 cells/well) the day before transfection. […] Luminescence was measured with an Infinite M200 luminometer (Tecan Deutschland GmbH, Germany). […]
On the technique in general: Reporter assays use an easily measured gene product as a stand-in for the process of interest.

The target in a further assay is T2, full-length human FXR (Homo sapiens, UniProt Q96RI1).
T2 construct: coding for the full‐length human nuclear receptors FXR and RXRα; expressed in transfected cells; host or cells: HeLa
T2 sequence (Q96RI1 1-486): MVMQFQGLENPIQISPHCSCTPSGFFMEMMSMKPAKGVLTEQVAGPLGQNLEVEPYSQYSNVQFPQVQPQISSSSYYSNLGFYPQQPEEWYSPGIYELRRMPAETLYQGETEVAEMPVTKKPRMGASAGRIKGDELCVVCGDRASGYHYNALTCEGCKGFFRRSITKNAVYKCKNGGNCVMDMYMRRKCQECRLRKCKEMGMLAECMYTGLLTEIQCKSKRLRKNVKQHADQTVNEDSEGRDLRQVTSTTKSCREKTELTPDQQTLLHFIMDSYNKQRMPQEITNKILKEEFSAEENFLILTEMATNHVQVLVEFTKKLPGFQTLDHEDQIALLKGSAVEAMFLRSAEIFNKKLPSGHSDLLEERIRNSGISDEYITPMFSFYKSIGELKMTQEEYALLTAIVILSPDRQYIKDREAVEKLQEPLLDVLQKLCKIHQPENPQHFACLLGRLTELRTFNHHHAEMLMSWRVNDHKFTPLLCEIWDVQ
T2 sequence (P19793 1-462 partner): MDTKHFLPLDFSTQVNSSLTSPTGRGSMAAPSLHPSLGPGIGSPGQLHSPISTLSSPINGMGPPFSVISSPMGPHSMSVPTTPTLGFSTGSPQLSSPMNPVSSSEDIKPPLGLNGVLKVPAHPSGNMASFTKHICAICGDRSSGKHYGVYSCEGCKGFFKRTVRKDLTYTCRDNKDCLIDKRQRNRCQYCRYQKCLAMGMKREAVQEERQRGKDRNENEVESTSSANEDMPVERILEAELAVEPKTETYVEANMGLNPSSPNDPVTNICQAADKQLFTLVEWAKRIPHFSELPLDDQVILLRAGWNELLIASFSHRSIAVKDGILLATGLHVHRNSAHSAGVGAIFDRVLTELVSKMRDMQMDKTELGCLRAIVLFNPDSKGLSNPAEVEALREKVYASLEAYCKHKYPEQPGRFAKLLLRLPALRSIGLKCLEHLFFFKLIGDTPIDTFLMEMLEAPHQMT
The settings on record: mean±S.E.M., n≥3, previously reported, cited from earlier work.

The structures appear in SMILES notation.

For the molecule `O=C(O)c1cccc(NC(=O)c2ccc(OCCCc3ccccc3)cc2)c1` [compound 8], the PPARγ activation result on PPARγ was “weak PPARγ activation”. The “FXR efficacy (maximum FXR activation relative to 3 μM GW4064)” value on full-length human FXR (3 μM GW4064 = 100 % activation) is given as 22±1%. At full-length human FXR (full-length FXR reporter gene assay, BSEP promoter, HeLa), the EC50 was 0.029 ± 0.006 µM.

As a reminder, the EC50 is the midpoint of the concentration-response curve.
